Laboratory results taken from patent US20090214498A1, “ANTIMICROBIAL PEPTIDES AND BACTERIAL STRAINS THAT PRODUCE THEM” (TEAGASC- NATIONAL DIARY PRODUCTS RESEARCH CENTRE, priority 2005, published 2009).
Values after ≈ are worked out from the molar mass of the structure shown. Values joined by “and” are separate entries in the source; they are usually repeats but may differ in a detail not shown here. Equal values may be shown once. Residues, ends and D or L forms follow the SMILES beside them.

Columns and labels:
[1] = test system: Lactobacillus bulgaricus ATCC11842 DPC5383; assay: agar well diffusion assay, L. bulgaricus DPC5383; assay type: cell-based; set-up: key: +++: Zone of inhibition >2.0 cm in diameter produced.; ++: Zone of inhibition >1.5 cm in diameter produced.; +: Zone of inhibition >1.0 cm in diameter produced.; −: No zone detected; conditions: pure synthesised peptide
[2] = test system: E. coli O157:H7 DPC6054; assay: agar well diffusion assay, E. coli O157:H7 DPC6054; assay type: cell-based, Escherichia coli; set-up: key to zone of inhibition (inhibitory spectrum): +++: Zone of inhibition >2.0 cm in diameter produced.; ++: Zone of inhibition >1.5 cm in diameter produced.; +: Zone of inhibition >1.0 cm in diameter produced.; −: No zone detected; conditions: for zone of inhibition (inhibitory spectrum): E. coli O157:H7 DPC6054, pure synthesised peptide
[3] = test system: E. sakazakii 5920 (ATCC12868); assay: agar well diffusion assay, E. sakazakii 5920; assay type: cell-based, Enterobacter sakazakii; set-up: key to zone of inhibition (inhibitory spectrum): +++: Zone of inhibition >2.0 cm in diameter produced.; ++: Zone of inhibition >1.5 cm in diameter produced.; +: Zone of inhibition >1.0 cm in diameter produced.; −: No zone detected; conditions: for zone of inhibition (inhibitory spectrum): Enterobacter sakazakii ATCC12868 DPC6090, pure synthesised peptide
Experimental: (§1) Preliminary characterisation of the antibacterial activity of peptides and fractions synthesised involved measurement of growth inhibition in a 96-well plate assay (1, 10) and utilisation of an agar diffusion method (16,39). […] A control without bacteria (sterility control) was also included. The plates were incubated for 6 h at 37° C. and culture growth monitored hourly. Minimum inhibitory concentrations (MIC's) were taken as the lowest concentration without visible growth, measured by recording the OD600, in a micro-titre plate reader. A well diffusion assay (16, 40) was used to detect antibacterial activity of purified and chemically synthesised peptides. These assays were performed in either Brain Heart Infusion (BHI), Luria Bertani (LB) or Nutrient agar (NA) seeded with 1 ml of an overnight culture of the indicator strains E. coli DPC6053, L. innocua DPC3306, E. sakazakii 5920 (ATCC12868) or E. sakazakii 8272 (NCTC8155) respectively. Wells, 4.6 mm in diameter, were cut into these agar plates, and 30 μl (0.162 mg/ml) of the peptide fraction placed in each well. Plates were stored at 4° C. for 4 h to permit radial diffusion of the peptide, incubated at 30° C. anaerobically or 37° C. aerobically for 24 h, and examined for zones of inhibition. The sensitivity of a strain to the peptides was scored according to the diameter of the zone of inhibition surrounding the well. The experiments were performed in triplicate and mean zone size calculated.

[4] = test system: L. innocua DPC3306; assay: agar well diffusion assay, L. innocua DPC3306; assay type: cell-based; conditions: Listeria innocua DPC3306; for zone of inhibition (inhibitory spectrum): pure synthesised peptide
Experimental: as §1

[5] = test system: Streptococcus mutans DPC4069; assay: agar well diffusion assay, S. mutans DPC4069; assay type: cell-based; set-up: key: +++: Zone of inhibition >2.0 cm in diameter produced.; ++: Zone of inhibition >1.5 cm in diameter produced.; +: Zone of inhibition >1.0 cm in diameter produced.; −: No zone detected; conditions: pure synthesised peptide
[6] = test system: Staphylococcus aureus DPC5246; assay: agar well diffusion assay, S. aureus DPC5246; assay type: cell-based; set-up: key: +++: Zone of inhibition >2.0 cm in diameter produced.; ++: Zone of inhibition >1.5 cm in diameter produced.; +: Zone of inhibition >1.0 cm in diameter produced.; −: No zone detected; conditions: pure synthesised peptide
[7] = test system: E. coli O157:H7 DPC6055; assay: agar well diffusion assay, E. coli O157:H7 DPC6055; assay type: cell-based, Escherichia coli; set-up: key to zone of inhibition (inhibitory spectrum): +++: Zone of inhibition >2.0 cm in diameter produced.; ++: Zone of inhibition >1.5 cm in diameter produced.; +: Zone of inhibition >1.0 cm in diameter produced.; −: No zone detected; conditions: for zone of inhibition (inhibitory spectrum): E. coli O157:H7 DPC6055, pure synthesised peptide
[8] = test system: E. coli DPC6053; assay: agar well diffusion assay, E. coli DPC6053; assay type: cell-based, Escherichia coli JM109; set-up: key to zone of inhibition (inhibitory spectrum): +++: Zone of inhibition >2.0 cm in diameter produced.; ++: Zone of inhibition >1.5 cm in diameter produced.; +: Zone of inhibition >1.0 cm in diameter produced.; −: No zone detected; conditions: for zone of inhibition (inhibitory spectrum): Escherichia coli JM109 DPC6053, pure synthesised peptide; for concentration at which the indicator organism was inhibited: agar well-diffusion assay
Experimental: as §1

[9] = test system: E. coli DPC6053; assay: susceptibility to proteinase K, agar well diffusion assay; assay type: cell-based, Escherichia coli; conditions: proteinase K 2050 U/ml, 1:1 volume ratio, 4° C., 6 h
Experimental: Plates were incubated at 37° C. for 24 h. The positive controls used were the peptides isracidin (Peptide Protein Research Ltd.) and Cecropin P1 (Sigma TM).

[10] = test system: E. coli DPC6053; assay: 96-well plate assay (OD600), MIC; assay type: cell-based, Escherichia coli; conditions: for minimum inhibitory concentration (MIC): E. coli DPC6053, 6 h at 37° C., OD600
Experimental: as §1

[11] = test system: E. sakazakii 8272 (NCTC8155); assay: agar well diffusion assay, E. sakazakii 8272; assay type: cell-based, Enterobacter sakazakii; set-up: key to zone of inhibition (inhibitory spectrum): +++: Zone of inhibition >2.0 cm in diameter produced.; ++: Zone of inhibition >1.5 cm in diameter produced.; +: Zone of inhibition >1.0 cm in diameter produced.; −: No zone detected; conditions: for zone of inhibition (inhibitory spectrum): E. sakazakii NCTC8155 DPC6091, pure synthesised peptide
Experimental: as §1

[12] = test system: S. aureus, Streptococcus pyogenes and L. monocytogenes; conditions: doses as low as; cited from earlier work
[13] = test system: lactobacilli and other Gram-positive bacteria; conditions: Floris et al. 2003; cited from earlier work

Compound: CC[C@H](C)[C@H](N)C(=O)N[C@@H](CCCCN)C(=O)N[C@@H](Cc1c[nH]cn1)C(=O)N[C@@H](CCC(N)=O)C(=O)NCC(=O)N[C@@H](CC(C)C)C(=O)N1CCC[C@H]1C(=O)N[C@@H](CCC(N)=O)C(=O)N[C@@H](CCC(=O)O)C(=O)O [SEQ ID NO: 1] (H-IKHQGLPQE-OH; N-terminus and C-terminus assumed)
- zone of inhibition (inhibitory spectrum) [1]: +++ (Zone of inhibition >2.0 cm in diameter produced.)
- zone of inhibition (inhibitory spectrum) [2]: +++ (Zone of inhibition >2.0 cm in diameter produced.)
- concentration at which inhibition was shown ([2]; agar well-diffusion assay, E. coli DPC6054 (O157:H7 derivative)): 0.05 mM
- zone of inhibition (inhibitory spectrum) [3]: +++ (Zone of inhibition >2.0 cm in diameter produced.)
- concentration at which inhibition was shown ([3]; agar well-diffusion assay, E. sakazakii 5920 (ATCC12868)): 0.05 mM
- zone of inhibition (inhibitory spectrum) [4]: ++ (Zone of inhibition >1.5 cm in diameter produced.)
- zone of inhibition (inhibitory spectrum) [5]: ++ (Zone of inhibition >1.5 cm in diameter produced.)
- zone of inhibition (inhibitory spectrum) [6]: −
- zone of inhibition (inhibitory spectrum) [7]: +++ (Zone of inhibition >2.0 cm in diameter produced.)
- concentration at which inhibition was shown ([7]; agar well-diffusion assay, E. coli DPC6055 (O157:H7 derivative)): 0.05 mM
- zone of inhibition (inhibitory spectrum) [8]: +++ (Zone of inhibition >2.0 cm in diameter produced.)
- concentration at which the indicator organism was inhibited ([8]; E. coli DPC6053): 0.05 mM
- antimicrobial activity after treatment with proteinase K [9]: lose their antibacterial activity
- minimum inhibitory concentration (MIC) [10]: 78 µM (≈ 81.8 µg/mL)
- zone of inhibition (inhibitory spectrum) [11]: +++ (Zone of inhibition >2.0 cm in diameter produced.)

Compound: CC(C)C[C@H](NC(=O)[C@H](CC(C)C)NC(=O)[C@H](CC(N)=O)NC(=O)[C@H](CCC(=O)O)NC(=O)[C@H](CC(N)=O)NC(=O)[C@H](CC(C)C)NC(=O)[C@@H](N)C(C)C)C(=O)N[C@@H](CCCNC(=N)N)C(=O)O [SEQ ID NO: 3] (H-VLNENLLR-OH; N-terminus and C-terminus assumed)
- zone of inhibition (inhibitory spectrum) [1]: +++ (Zone of inhibition >2.0 cm in diameter produced.)
- zone of inhibition (inhibitory spectrum) [2]: +++ (Zone of inhibition >2.0 cm in diameter produced.)
- zone of inhibition (inhibitory spectrum) [3]: +++ (Zone of inhibition >2.0 cm in diameter produced.)
- zone of inhibition (inhibitory spectrum) [4]: ++ (Zone of inhibition >1.5 cm in diameter produced.)
- zone of inhibition (inhibitory spectrum) [5]: ++ (Zone of inhibition >1.5 cm in diameter produced.)
- zone of inhibition (inhibitory spectrum) [6]: −
- zone of inhibition (inhibitory spectrum) [7]: +++ (Zone of inhibition >2.0 cm in diameter produced.)
- zone of inhibition (inhibitory spectrum) [8]: +++ (Zone of inhibition >2.0 cm in diameter produced.)
- concentration at which the indicator organism was inhibited ([8]; E. coli DPC6053): 0.22 mM
- antimicrobial activity after treatment with proteinase K [9]: lose their antibacterial activity
- minimum inhibitory concentration (MIC) [10]: 220 µM (≈ 213 µg/mL)
- zone of inhibition (inhibitory spectrum) [11]: +++ (Zone of inhibition >2.0 cm in diameter produced.)
- concentration at which inhibition was shown ([11]; agar well-diffusion assay, E. sakazakii DPC6091): 0.22 mM

Compound: CC[C@H](C)[C@H](NC(=O)CNC(=O)[C@H](CCC(=O)O)NC(=O)[C@H](CO)NC(=O)[C@@H](NC(=O)[C@H](CCCNC(=N)N)NC(=O)[C@H](CCCCN)NC(=O)[C@H](CCCCN)NC(=O)[C@H](C)NC(=O)[C@H](CO)NC(=O)[C@H](CC(N)=O)NC(=O)[C@H](CCC(=O)O)NC(=O)[C@H](CC(C)C)NC(=O)[C@H](CCCCN)NC(=O)[C@H](CCCCN)NC(=O)[C@H](C)NC(=O)[C@@H](NC(=O)[C@H](CCCCN)NC(=O)[C@H](CO)NC(=O)[C@H](CC(C)C)NC(=O)[C@H](Cc1c[nH]c2ccccc12)NC(=O)[C@@H](N)CO)[C@@H](C)O)[C@@H](C)CC)C(=O)N[C@@H](C)C(=O)N[C@H](C(=O)N[C@@H](C)C(=O)N[C@H](C(=O)N[C@@H](CCC(N)=O)C(=O)NCC(=O)NCC(=O)N1CCC[C@H]1C(=O)N[C@@H](CCCNC(=N)N)C(=O)O)[C@@H](C)CC)[C@@H](C)CC [Cecropin P1] (H-SWLSKTAKKLENSAKKRISEGIAIAIQGGPR-OH)
- MIC of commercially available control peptides ([10]; strain not given): 50 µM

Compound: CC[C@H](C)[C@H](NC(=O)[C@@H]1CCCN1C(=O)[C@H](Cc1cnc[nH]1)NC(=O)[C@H](CCCCN)NC(=O)[C@@H]1CCCN1C(=O)[C@@H](N)CCCNC(=N)N)C(=O)N[C@@H](CCCCN)C(=O)N[C@@H](Cc1cnc[nH]1)C(=O)N[C@@H](CCC(N)=O)C(=O)NCC(=O)N[C@@H](CC(C)C)C(=O)N1CCC[C@H]1C(=O)N[C@@H](CCC(N)=O)C(=O)N[C@@H](CCC(=O)O)C(=O)N[C@H](C(=O)N[C@@H](CC(C)C)C(=O)N[C@@H](CC(N)=O)C(=O)N[C@@H](CCC(=O)O)C(=O)N[C@@H](CC(N)=O)C(=O)N[C@@H](CC(C)C)C(=O)N[C@@H](CC(C)C)C(=O)N[C@@H](CCCNC(=N)N)C(=O)N[C@@H](Cc1ccccc1)C(=O)O)C(C)C [isracidin, Isracidin] (H-RPKHPIKHQGLPQEVLNENLLRF-OH)
- dose with strong protective effect [12]: 10 μg per mouse
- concentration inhibiting in vitro growth [13]: 0.1 to 1 mg/mL
- minimum inhibitory concentration (MIC) [10]: 50 µM and 59 µM

Compound: SDIPNPIGSENSEK (Strain DPC6026; listed as Lactobacillus acidophilus) [SEQ ID NO: 2, peptide of bovine αs1-casein f(183-207), found in fraction A1-49, chemically synthesised]
- zone of inhibition (inhibitory spectrum) [1]: −
- zone of inhibition (inhibitory spectrum) [2]: −
- zone of inhibition (inhibitory spectrum) [3]: −
- inhibitory / antimicrobial activity (in words) ([4]; crude fermentates: 96-well plate assay or well diffusion assay): some inhibitory activity
- zone of inhibition (inhibitory spectrum) [4]: + (Zone of inhibition >1.0 cm in diameter produced.)
- zone of inhibition (inhibitory spectrum) [5]: −
- zone of inhibition (inhibitory spectrum) [6]: −
- zone of inhibition (inhibitory spectrum) [7]: −
- inhibitory / antimicrobial activity (in words) ([8]; E. coli DPC6053, crude fermentates: 96-well plate assay or well diffusion assay): no activity
- zone of inhibition (inhibitory spectrum) [8]: −
- antimicrobial activity after treatment with proteinase K [9]: lose their antibacterial activity
- zone of inhibition (inhibitory spectrum) [11]: −
